{"source": "paper PMC7217877", "about": "“N-AS-triggered SPMs are direct regulators of microglia in a model of Alzheimer’s disease” (Nature Communications, 2020)", "test_system": "APP/PS1 mice", "assay": "Morris water maze test (Fig 6k-q)", "assay_type": "in vivo, mouse", "design": "Morris water maze learning curve (Figure 6k) / Morris water maze learning curve (Figure 6k), group mean (평균) / Morris water maze, Non-Target quadrant (Figure 6l) / Morris water maze, Target quadrant (Figure 6l) / Morris water maze, A0 (Target quadrant) (Figure 6m) / Morris water maze, quadrant A1 (Figure 6m) / Morris water maze, quadrant A2 (Figure 6m) / Morris water maze, quadrant A3 (Figure 6m): unit not given here", "conditions": "for Morris water maze learning curve (Figure 6k), group mean (평균): AD/N-AS group mean; for Morris water maze learning curve (Figure 6k): AD/N-AS individual animals", "protocol": "Transgenic mouse lines over-expressing the hAPP695swe (APP) and presenilin-1M146V (PS1) mutations were originated from GlaxoSmithKline (Harlow, UK)[32] and maintained as described previously. We purchased 5×FAD mice from Jackson Labs (Stock number. 34840-JAX). Because APP/PS1 and 5xFAD mice show sex differences in disease progression, we used only male mice. To examine possible therapeutic effect of N-AS and aspirin in APP/PS1 mice, the N-AS (30 mg kg^−1, Sigma-Aldrich, 01912) was injected daily s.c. for 8 weeks to 7-months-old APP/PS1 mice until the age of 9 months, and aspirin (2 mg kg^−1, Sigma-Aldrich, A5376)[33] was administrated orally to 7-months-old APP/PS1 mice for 8 weeks. […] Block randomization method was used to allocate the animals to experimental groups. To eliminate the bias, we were blinded in experimental progress such as data collection and data analysis. Mice were housed at temperature of 22 °C and a 12 h day/12 h night cycle with free access to tap water and food pellets. All protocols were approved by the Kyungpook National University Institutional Animal Care and Use Committee. We performed behavioral studies to assess spatial learning and memory in the Morris water maze as previously described[11],[31]. Animals were given four trials per day for 10 days to learn the task. At day 11, animals were given a probe trial in which the platform was removed. Fear conditioning was conducted by previously described techniques. On the conditioning day, mice were individually placed into the conditioning chamber. After a 60 s exploratory period, a tone (10 kHz, 70 dB) was delivered for 10 s; this served as the conditioned stimulus (CS). The CS co-terminated with the unconditioned stimulus (US), a scrambled electrical footshock (0.3 mA, 1 s). The CS-US pairing was delivered twice at a 20 s intertrial interval. On day 2, each mouse was placed in the fear-conditioning chamber containing the same exact context, but with no administration of a CS or foot shock. Freezing was analyzed for 5 min. On day 3, a mouse was placed in a test chamber that was different from the conditioning chamber. After a 60 s exploratory period, the tone was presented for 60 s without the footshock. The rate of freezing response of mice was used to measure the fear memory. The open field test was used for locomotion and anxious behaviors as previously described. The open field box consisted of a square box. Each animal was placed in the box for 10 min. Overall activity in the box was measured, and the amount of time and distance traveled in the center arena was noted. After each trial, the test chambers were cleaned with a damp towel and distilled water followed by 70% alcohol. The light-dark test was used for assessing the anxiety-like behavior as previously described. One chamber was brightly illuminated, whereas the other chamber was dark. Mice were placed into the dark chamber and allowed to move freely between the two chambers with the door open for 10 min. The total number of transitions, latency to first enter the light chamber, distance traveled, and time spent in each chamber were recorded.", "key": {"[1]": {"conditions": "APP/PS1 + N-AS, individual animals"}}, "note": "Where “and” joins values, the source holds several entries; their conditions need not be identical. Equal values may be shown once.", "data": [{"smiles": "CCCCCCCCCCCCC/C=C/[C@@H](O)[C@H](CO)NC(C)=O", "note": "[N-AS, N-((2S,3R,E)-1,3-Dihydroxyoctadec-4-en-2-yl)acetamide]", "values": [{"measurement": "Morris water maze, A0 (Target quadrant) (Figure 6m)", "setting": "[1]", "result": "14.5 and 35 and 17.5 and 31.5 and 19.5 and 29.5 and 37.5 and 7.5 and 9.5 and 20 and 10 and 18 and 24 and 10.5 and 30.5 and 43"}, {"measurement": "Morris water maze, Non-Target quadrant (Figure 6l)", "setting": "[1]", "result": "15.1667 and 8.333 and 14.1667 and 9.5 and 13.5 and 10.1667 and 7.5 and 17.5 and 16.8333 and 13.3333 and 16.6667 and 14 and 12 and 16.5 and 9.833 and 5.667"}, {"measurement": "Morris water maze, Target quadrant (Figure 6l)", "setting": "[1]", "result": "14.5 and 35 and 17.5 and 31.5 and 19.5 and 29.5 and 37.5 and 7.5 and 9.5 and 20 and 10 and 18 and 24 and 10.5 and 30.5 and 43"}, {"measurement": "Morris water maze, quadrant A1 (Figure 6m)", "setting": "[1]", "result": "17.5 and 9 (2×) and 20 and 6.5 (2×) and 15.5 (2×) and 32 and 21 and 8.5 and 28 and 14 and 22 and 6 and 3"}, {"measurement": "Morris water maze, quadrant A2 (Figure 6m)", "setting": "[1]", "result": "16 and 9.5 and 14 and 9 and 21.5 and 19 and 2 and 2.5 and 10 and 15 (2×) and 13.5 and 11.5 and 21 and 19.5 and 7"}, {"measurement": "Morris water maze, quadrant A3 (Figure 6m)", "setting": "[1]", "result": "12 and 6.5 (2×) and 8.5 and 13 and 10 and 5 (2×) and 18 and 19.5 and 16.5 and 7 (2×) and 14.5 and 9 and 4"}, {"measurement": "memory formation, Morris water maze", "setting": "N-AS vs vehicle APP/PS1", "result": "largely protected from this defect"}, {"measurement": "Morris water maze learning curve (Figure 6k), group mean (평균)", "setting": "day 1", "result": 42.2833}, {"measurement": "Morris water maze learning curve (Figure 6k)", "setting": "day 1", "result": "60 and 38.125 and 47.875 and 37.75 and 40.875 and 47.75 and 32.5 and 22.875 and 46 and 29.25 and 55.625"}, {"measurement": "Morris water maze learning curve (Figure 6k), group mean (평균)", "setting": "day 2", "result": 36.025}, {"measurement": "Morris water maze learning curve (Figure 6k)", "setting": "day 2", "result": "40.25 and 39.875 and 60 and 24.625 and 34.625 and 51 and 16.875 and 15.75 and 46.75 and 19.875"}, {"measurement": "Morris water maze learning curve (Figure 6k), group mean (평균)", "setting": "day 3", "result": 36.0583}, {"measurement": "Morris water maze learning curve (Figure 6k)", "setting": "day 3", "result": "37.5 and 38.875 and 60 and 43.625 and 20.125 and 43.25 and 17.375 and 42 and 34.75 and 24.875"}, {"measurement": "Morris water maze learning curve (Figure 6k), group mean (평균)", "setting": "day 4", "result": 34.2583}, {"measurement": "Morris water maze learning curve (Figure 6k)", "setting": "day 4", "result": "37.125 and 35.25 and 60 and 49.75 and 25.875 and 12 and 37.5 and 8.375 and 36.125"}, {"measurement": "Morris water maze learning curve (Figure 6k), group mean (평균)", "setting": "day 5", "result": 34.3417}, {"measurement": "Morris water maze learning curve (Figure 6k)", "setting": "day 5", "result": "43.125 and 17.125 and 55.5 and 30.25 and 26.375 and 55.25 and 23.875 and 38.5 and 13.5 and 31.125"}, {"measurement": "Morris water maze learning curve (Figure 6k), group mean (평균)", "setting": "day 6", "result": 32.3333}, {"measurement": "Morris water maze learning curve (Figure 6k)", "setting": "day 6", "result": "28.5 and 25 and 50.375 and 17.375 and 47.125 and 52.75 and 16.25 and 60 and 13.25 and 35.25"}, {"measurement": "Morris water maze learning curve (Figure 6k), group mean (평균)", "setting": "day 7", "result": 30.9667}, {"measurement": "Morris water maze learning curve (Figure 6k)", "setting": "day 7", "result": "47.875 and 26.5 and 46.5 and 22.75 and 19 and 33.75 and 27.5 and 50.25 and 12.375 and 43"}, {"measurement": "Morris water maze learning curve (Figure 6k), group mean (평균)", "setting": "day 8", "result": 23.3417}, {"measurement": "Morris water maze learning curve (Figure 6k)", "setting": "day 8", "result": "37.125 and 17.75 and 27.875 and 22.625 and 16.625 and 24.375 and 5.5 and 25.125 and 14.875 and 41"}, {"measurement": "Morris water maze learning curve (Figure 6k), group mean (평균)", "setting": "day 9", "result": 22.7083}, {"measurement": "Morris water maze learning curve (Figure 6k)", "setting": "day 9", "result": "32.25 and 21.375 and 17.5 and 11.125 and 27.125 and 18.875 and 12.75 and 21.625 and 50.375 and 15.875"}, {"measurement": "Morris water maze learning curve (Figure 6k), group mean (평균)", "setting": "day 10", "result": 21.95}, {"measurement": "Morris water maze learning curve (Figure 6k)", "setting": "day 10", "result": "23.625 and 39.125 and 23.5 and 13 and 13.75 and 40.75 and 22.25 and 36.625 and 14.75 and 17.75"}]}]}
